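Cultured in 96-well plates, cells were exposed to test compound for 48 hours across five concentrations. At the GI50, growth is halved. TGI denotes the concentration required for complete inhibition of growth.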
Tests used:
Assay in all cases: inhibition of tumour cell growth, NCI panel, 48 h
SK-MEL-5 melanoma = test system: SK-MEL-5 melanoma
K-562 leukemia = test system: K-562 leukemia
T-47D breast = test system: T-47D breast
HS 578T breast = test system: HS 578T breast
DU-145 prostate = test system: DU-145 prostate
NCI/ADR-RES ovarian = test system: NCI/ADR-RES ovarian
PC-3 prostate = test system: PC-3 prostate
COLO 205 colon = test system: COLO 205 colon
MCF7 breast = test system: MCF7 breast
EKVX NSCLC = test system: EKVX NSCLC

Row | SMILES | GI50 (SK-MEL-5 melanoma) [µM] | TGI (SK-MEL-5 melanoma) [µM] | GI50 (K-562 leukemia) [µM] | TGI (K-562 leukemia) [µM] | GI50 (T-47D breast) [µM] | TGI (T-47D breast) [µM] | GI50 (HS 578T breast) [µM] | TGI (HS 578T breast) [µM] | GI50 (DU-145 prostate) [µM] | TGI (DU-145 prostate) [µM] | GI50 (NCI/ADR-RES ovarian) [µM] | TGI (NCI/ADR-RES ovarian) [µM] | GI50 (PC-3 prostate) [µM] | TGI (PC-3 prostate) [µM] | GI50 (COLO 205 colon) [µM] | TGI (COLO 205 colon) [µM] | GI50 (MCF7 breast) [µM] | TGI (MCF7 breast) [µM] | TGI (EKVX NSCLC) [µM] | GI50 (EKVX NSCLC) [µM]
1 | Cn1c(=O)c(Oc2ccccc2F)cc2cnc(NC3CCOCC3)nc21 | > 25 | > 25 | > 25 | > 25 | > 25 | > 25 | > 25 | > 25 | > 25 | > 25 | > 25 | > 25 | > 25 | > 25 | > 25 | > 25 | > 25 | > 25 |  | 
2 | CCCCCCCC(=O)OC(CBr)COC(=O)C(C)(C)C (stereo not drawn) |  | > 100 |  | > 100 |  |  |  |  |  |  |  |  |  |  |  | > 100 |  |  | > 100 | 
3 | O=c1cc2ccccc2nn1Cc1ccccc1Cl |  | > 100 |  | > 100 |  |  |  |  |  |  |  |  |  |  |  | > 100 |  |  | > 100 | 
4 | Cc1c(C(=O)NCCO)[n+](=O)c2cc(Cl)ccc2n1[O-] |  | > 100 |  | > 100 |  |  |  |  |  |  |  |  |  |  |  | > 100 |  |  | > 100 | 
5 | NC(=O)c1cc(Br)cc(C2CCCCC2)c1O | 15.1 | 28.9 | 14.4 | 34.5 | 11.5 | 27 |  |  | 12.3 | 24.9 | 11 | 23.9 | 12.8 | 26.4 | 16.5 | 31.1 | 15.8 | 30.8 | 30.5 | 15.1
6 | Cc1ccc(S(=O)(=O)NC(=O)NC23CC4CC(CC(F)(C4)C2)C3)cc1 |  | > 100 |  | > 100 |  |  |  |  |  |  |  |  |  |  |  | > 100 |  |  | > 100 | 
7 | CN1NC2(CCCCC2)ON=C1c1ccccc1 |  | > 100 |  | > 100 |  |  |  |  |  |  |  |  |  |  |  | > 100 |  |  | > 100 | 
8 | ClC(Cl)c1nc(-c2cccnc2)n2nc(-c3ccccc3)cc2n1 |  |  | 1.33 | > 100 |  |  | 2.5 | 6.05 | 0.554 | 3.14 | 1.14 | 4.18 | 1.71 | 4.68 | 0.592 | 2.39 |  |  | 6.21 | 2.32
9 | CC(=O)O[C@H]1CC[C@@]2(C)C(=CC[C@H]3[C@@H]4C/C(=C\c5cccc(OCCN6CCOCC6)c5)[C@H](OC(C)=O)[C@@]4(C)CC[C@@H]32)C1 | 10.5 | 22.3 | 2.95 | 12.5 | 4.18 | 22.5 | 3.07 | 10.9 | 23.3 | > 100 |  |  | 4.5 | 16.4 | 6.46 | 19.4 | 10.4 | 84.5 | 36.7 | 11
10 | CC(=O)O[C@H]1CC[C@@]2(C)C(=CC[C@H]3C4=CC=C(C(C)=O)[C@@]4(C)CCC32)C1 (stereo partly drawn) |  | 40.3 |  |  |  |  |  |  |  |  |  |  |  |  |  | 39.6 |  |  | > 100 | 
11 | O=C(O)/C(=C/c1c(O)ccc2ccccc12)c1csc(-c2nc(/C(=C\c3c(O)ccc4ccccc34)C(=O)O)cs2)n1 |  | 37.1 |  | 38.6 |  |  |  |  |  |  |  |  |  |  |  | 31.4 |  |  | > 100 | 
12 | COc1ccc2c(c1OC)C1=C(C2=O)c2cc3c(cc2CCN1)OCO3 |  | 84.3 |  | 87.8 |  |  |  |  |  |  |  |  |  |  |  | > 100 |  |  | > 100 | 
13 | CC(C)(C)NCc1cc(C(C)(C)C)cc(-c2ccc(Cl)cc2)c1O |  | 29.7 |  |  |  |  |  | 29 |  | 24.7 |  | 32.4 |  |  |  | 23.8 |  | 32.7 | 32.4 | 
14 | COc1cc2noc(-c3ccccc3)c2cc1OC |  | > 100 |  | > 100 |  |  |  |  |  |  |  |  |  |  |  | > 100 |  |  |  | 
15 | C[C@]1(CO)[C@H]2CC[C@@]34C=C[C@@](CO)(CC[C@H]3[C@]2(C)CC[C@H]1O)C4 |  | 32.3 |  |  |  | 84.3 |  | > 100 |  | > 100 |  | > 100 |  | > 100 |  | > 100 |  | > 100 | > 100 | 
16 | COC1OC(CO)C(O)C(O)C1Br (stereo not drawn) |  | > 100 |  | > 100 |  |  |  |  |  |  |  |  |  |  |  | > 100 |  |  |  | 
17 | Cn1c(=O)nc2n(-c3cccc(F)c3)c3ccccc3nc-2c1=O |  | 27.3 |  | 58.1 |  |  |  |  |  |  |  |  |  |  |  | 19 |  |  | 32.5 | 
18 | Cc1sc(C)c(Cc2c(C)sc(C)c2CCl)c1CCl | > 100 | > 100 | 23 | > 100 | > 100 | > 100 | > 100 | > 100 | > 100 | > 100 | > 100 | > 100 |  |  | > 100 | > 100 | > 100 | > 100 | > 100 | > 100
19 | Cc1nc2ccc(Nc3nc(NCCN4CCOCC4)nc(Nc4ccc(F)cc4)n3)cc2n1Cc1ccccc1 | 1.63 | 2.98 | 1.79 | 7.42 | 2.66 | 18.8 | 1.87 | 6.66 | 5.56 | 71.6 | 3.79 | 40.1 | 3.26 | 16.2 | 1.62 | 3.13 | 2.46 | 11.7 |  | 
20 | NC(=O)N/N=C/C(/C=N/NC(N)=O)[N+](=O)[O-] |  |  |  | > 100 |  |  |  |  |  |  |  |  |  |  |  | > 100 |  |  | > 100 | 
21 | Nc1ccc2c(c1)NCCN2 |  | 46.8 |  | > 100 |  |  |  | > 100 |  | > 100 |  | > 100 |  | > 100 |  | > 100 |  | > 100 | > 100 | 
22 | C=C=C(CC)C(C(=O)OC)N(CC)CC (stereo not drawn) |  | > 100 |  | > 100 |  |  |  |  |  |  |  |  |  |  |  | > 100 |  |  | > 100 | 
23 | CN1c2ccccc2N(C)C2C1N(C)c1ccccc1N2C (stereo not drawn) |  | 18.4 |  | > 100 |  |  |  |  |  |  |  |  |  |  |  | 29.4 |  |  | > 100 | 
24 | CO/C1=C\C(C)=C\C(C)C(O)C(C)C/C(C)=C/C=C/C(OC)C(C(C)C(O)C(C)C2(O)CC(O)C(C)C(C(C)C)O2)OC1=O (stereo not drawn) |  | 0.00177 |  | 13.7 |  |  |  |  |  |  |  |  |  |  |  |  |  |  | 4.93 | 
25 | CCOC(=O)C1(Cc2ccccc2)CCCCCN1 (stereo not drawn) |  |  |  | > 100 |  |  |  |  |  |  |  |  |  |  |  | > 100 |  |  | > 100 | 
26 | COc1c(C(=O)O)oc2c(OC)cccc12 |  | > 100 |  | > 100 |  |  |  |  |  |  |  |  |  |  |  | > 100 |  |  | > 100 | 
27 | O=C1C[C@@H]2C(COC(=O)c3ccccc3)N(OCc3ccccc3)C[C@@H]2O1 (stereo partly drawn) |  | > 100 |  | > 100 |  |  |  |  |  |  |  |  |  |  |  | > 100 |  |  | > 100 | 
28 | Cc1c(C(=O)c2ccccc2C(=O)O)c2ccccc2n1C |  | > 100 |  | > 100 |  |  |  |  |  |  |  |  |  |  |  |  |  |  | > 100 | 

Source: PubChem BioAssay (NCI)
